Data on ten compounds can be found in US9212177B2, “Antiviral compounds and methods of making and using thereof” (Versitech Limited, priority 2009, dated 2015).

In series [1] the test system is Influenza A H1N1\WSN\33. Put plainly: microbe, parasite or virus in culture. As to conditions: for EC50: read-out: EC50 by PRA. In kind it is cell-based, Influenza A virus.
The nature of series [2]: MTT cytotoxicity assay in MDCK cells. In kind it is cell-based, canine. The conditions noted are these: dog, MDCK cells, 24 hours incubation, concentrations tested 0 to 250 μM, read-out: TC50 in MDCK cells. As to the method:
(§1) Cytotoxicity of Compounds 1-10 was measured by the 3-(4,5-dimethylthiazol-2-yl)-2,5-diphenyltetrazolium bromide (MTT, Sigma-Aldrich, USA) assay. The assay was performed by seeding Vero cells or MDCK cells at 20,000 cells/well in a total volume of 100 μl EMEM with 10% FBS in flat bottomed 96-well microtitre plates. After 24 hours of incubation, cells were washed twice with PBS and then replenished with fresh EMEM before the addition of the compounds. After the addition of the compounds, the cells were further incubated at 37° C. with 5% CO2 for 24 hours. MTT was added to each well to a final concentration of 0.5 mg/ml. The plates were further incubated at 37° C. with 5% CO2 for 4 hours. At the end of the incubation period, 100 μl of 10% of lauryl sulfate (SDS) in 0.01M of hydrochloric acid (HCl) was added to each well to solubilize the cells. After overnight incubation, the plates were read at 570 nm with 640 nm as the reference wavelength. The median toxic concentration, TC50, which represents the concentration of a compound required to reduce the MTT reading by 50%, was estimated from the MTT data.
In general terms: Tetrazolium assays rely on reduction of a dye to a coloured formazan, in cell work by metabolically active cells.

The nature of series [3]: MTT cytotoxicity assay in Vero cells. In kind it is cell-based. As to conditions: African green monkey, Vero cells, 24 hours incubation, concentrations tested 0 to 250 μM, read-out: TC50 in Vero cells. The procedure: as §1
Series [4] has as its system MDCK cells. Put plainly: MTT cytotoxicity assay in MDCK cells. In kind it is cell-based, canine. The conditions noted are these: 24 hours incubation, concentrations tested 0 to 250 μM, read-out: TC50 in MDCK cells. As to the method: as §1
Series [5] deals with Vero cells. Description: MTT cytotoxicity assay in Vero cells. As to conditions: 24 hours incubation, concentrations tested 0 to 250 μM, read-out: TC50 in Vero cells. In kind it is cell-based. As to the method: as §1

As a reminder, the EC50 is the concentration at which the effect is half-maximal.

SMILES strings stand for the structures. Like-named read-outs stand apart in the source and are kept apart here.

For the compound `Cc1onc(-c2c(Cl)cccc2Cl)c1C(=O)N1CCN(c2ccc([N+](=O)[O-])cc2)CC1` [Compound 9, [4-(4-nitro-phenyl)-piperazin-1-yl]-[3-(2,6-dichloro-phenyl)-5-methyl-isoxazol-4-yl]-methanone], in series [1], the “Selective Index (SI)” value is reported as over 21. For the same compound, in series [1] (Influenza A virus, MDCK, 72 h), the EC50 came to 12000 nM. Moreover, the CC50 at 24 h in series [2] and in series [3] was over 250 µM in each case.

Take `Cc1onc(-c2ccccc2Cl)c1C(=O)N1CCN(c2c(Cl)cccc2[N+](=O)[O-])CC1` [Compound 10, [4-(2-nitro-6-chloro-phenyl)-piperazin-1-yl]-[3-(2-chloro-phenyl)-5-methyl-isoxazol-4-yl]-methanone]: the “Selective Index (SI)” value in series [1] is over 10. Also, the EC50 in series [1] (Influenza A virus, MDCK, 72 h) is 25000 nM. Besides, the CC50 at 24 h in series [2] and in series [3] was over 250 µM throughout.

With `Cc1onc(-c2ccccc2Cl)c1C(=O)N1CCN(c2ccc([N+](=O)[O-])cc2Cl)CC1C` (centres unmarked) [Compound 6, [4-(2-chloro-4-nitro-phenyl)-2-methyl-piperazin-1-yl]-[3-(2-chloro-phenyl)-5-methyl-isoxazol-4-yl]-methanone], the “Selective Index (SI)” value in series [1] was over 1190. For the same compound, in series [1] (Influenza A virus, MDCK, 72 h), the EC50 turned out to be 210 nM. In addition, the CC50 at 24 h in series [2] and in series [3] was over 250 µM each time.

Consider `Cc1onc(-c2ccc(N=[N+]=[N-])cc2)c1C(=O)N1CCN(c2ccc([N+](=O)[O-])cc2Cl)CC1` [Compound 4, [4-(2-chloro-4-nitro-pheny1)-piperazin-1-yl]-[3-(4-azido-pheny1)-5-methylisoxazol-4-yl]-methanone], for which the EC50 in series [1] was found to be 250 nM. For the same compound, the CC50 in series [4] and in series [5] was over 250 µM in each case.

For the compound `Cc1onc(-c2ccccc2Cl)c1C(=O)N1CCN(c2ccc([N+](=O)[O-])cc2)CC1` [Compound 8, [4-(4-nitro-pheny1)-piperazin-1-yl]-[3-(2-chloro-phenyl)-5-methyl-isoxazol-4-yl]-methanone], the EC50 in series [1] amounted to 5100 nM. Besides, the CC50 in series [4] and in series [5] was over 250 µM in each case.

In the case of `Cc1onc(-c2ccccc2)c1C(=O)N1CCN(c2ccc([N+](=O)[O-])cc2Cl)CC1` [Compound 2, [4-(2-chloro-4-nitro-phenyl)-piperazin-1-yl]-[3-phenyl-5-methyl-isoxazol-4-yl]-methanone], the “Selective Index (SI)” value in series [1] was over 4167. Moreover, in series [1] (Influenza A virus, MDCK, 72 h), the EC50 was determined as 60 nM. Besides, the CC50 at 24 h in series [2] and in series [3] was over 250 µM throughout.

As for `Cc1onc(-c2ccccc2)c1C(=O)N1CCN(c2ccc([N+](=O)[O-])cc2Cl)CC1C` (centres unmarked) [Compound 7, [4-(2-chloro-4-nitro-phenyl)-2-methyl-piperazin-1-yl]-[3-phenyl-5-methylisoxazol-4-yl]-methanone], the “Selective Index (SI)” value in series [1] is reported as over 313. In addition, the EC50 in series [1] (Influenza A virus, MDCK, 72 h) is 800 nM. The CC50 at 24 h in series [2] and in series [3] was over 250 µM each time.

On to `Cc1onc(-c2ccccc2Cl)c1C(=O)N1CCN(c2ccc([N+](=O)[O-])cc2Cl)CC1` [Compound 5, [4-(2-chloro-4-nitro-pheny1)-piperazin-1-yl]-[3-(2-chloro-phenyl)-5-methylisoxazol-4-yl]-methanone], for which the EC50 in series [1] was 40 nM. Further, the CC50 in series [4] and in series [5] was over 250 µM throughout.

`Cc1onc(-c2ccc(N)cc2)c1C(=O)N1CCN(c2ccc([N+](=O)[O-])cc2Cl)CC1` [Compound 3, [4-(2-chloro-4-nitro-phenyl)-piperazin-1-yl]-[3-(4-amino-phenyl)-methylisoxazol-4-yl]-methanone]: in series [1], the “Selective Index (SI)” value is over 4464. Further, the CC50 at 24 h in series [2] and in series [3] was over 250 µM throughout.

With `Cc1onc(-c2ccc(O)cc2)c1C(=O)N1CCN(c2ccc([N+](=O)[O-])cc2Cl)CC1` [Compound 1, [4-(2-chloro-4-nitro-pheny1)-piperazin-1-yl]-[3-(4-hydroxy-pheny1)-5-methylisoxazol-4-yl]-methanone], the EC50 in series [1] was found to be 50 nM. For the same compound, the CC50 in series [4] and in series [5] was over 250 µM throughout.
